Assay results taken from patent US20240376052A1, “N-SUBSTITUTED INDOLE DERIVATIVES AS SEROTONERGIC AGENTS USEFUL FOR THE TREATMENT OF DISORDERS RELATED THERETO” (Mindset Pharma Inc., priority 2021, published 2024).
Read-outs that look alike come from different tables or passages of the source.

What was measured:
human 5-HT2A receptor = human 5-HT2A receptor (Homo sapiens (Human), UniProt P28223); experiment: Human 5-HT2A radioligand binding assay ([3H]-ketanserin)
[1] = Liver microsomes stability, human; conditions: for Predicted hepatic CL: Human liver microsomes; for Remaining Percentage (%): Human; for CLint scaled at 2 μM / half-life at 2 μM / microsomal CLint at 2 μM: human, microsomes
Procedure: (§1) The objective of this study was to estimate in vitro metabolic stability of representative compounds of the application in pooled human and male mouse liver microsomes. The concentrations of parent compounds in reaction systems were evaluated by LC-MS/MS for estimating the stability in pooled human and male mouse liver microsomes. The in vitro intrinsic clearances of test compounds were determined as well.
(§2) A master solution in the “Incubation Plate” containing phosphate buffer, ultra-pure H2O, MgCl2 solution and liver microsomes was made according to Table 3. The mixture was pre-warmed at 37° C. water bath for 5 minutes.
(§3) 40 μL of 10 mM NADPH solution was added to each well. The final concentration of NADPH was 1 mM. The negative control samples were prepared by replacing NADPH with 40 μL of ultra-pure H2O. Samples were prepared in duplicate. Negative controls were prepared in singlet.
(§4) The reaction was started with the addition of 4 μL of 200 μM test compounds or control compounds to each master solution to get the final concentration of 2 μM. This study was performed in duplicate.
(§5) Aliquots of 50 μL were taken from the reaction solution at 0, 15, 30, 45 and 60 minutes. The reaction solutions were stopped by the addition of 4 volumes of cold methanol with IS (100 nM alprazolam, 200 nM imipramine, 200 nM labetalol and 2 μM ketoprofen). Samples were centrifuged at 3,220 g for 40 minutes. Aliquot of 90 μL of the supernatant was mixed with 90 μL of ultra-pure H2O and then was used for LC-MS/MS analysis.
(§6) LC/MS analysis was performed for all samples from this study using a Shimadzu liquid chromatograph separation system equipped with degasser DGU-20A5R; solvent delivery unit LC-30AD; system controller SIL-30AC; column oven CTO-30A; CTC Analytics HTC PAL System. Mass spectrometric analysis was performed using an Triple Quad™ 5500 instrument.
(§7) All calculations were carried out using Microsoft Excel. Peak area ratios of test compound to internal standard (listed in the below table) were determined from extracted ion chromatograms.
(§8) All calculations were carried out using Microsoft Excel. Peak areas were determined from extracted ion chromatograms. The slope value, k, was determined by linear regression of the natural logarithm of the remaining percentage of the parent drug vs. incubation time curve.
(§9) The in vitro half-life (in vitro t1/2) was determined from the slope value:
(§10) Conversion of the in vitro t1/2(min) into the in vitro intrinsic clearance (in vitro CLint, in μL/min/mg proteins) was done using the following equation (mean of duplicate determinations): […]

[2] = Liver microsomes stability, rat; conditions: for Predicted hepatic CL: Rat liver microsomes; for Remaining Percentage (%): Rat; for CLint scaled at 2 μM / half-life at 2 μM / microsomal CLint at 2 μM: rat, microsomes
Procedure: as §1, §2, §3, §4, §5, §6, §7, §8, §9, §10

[3] = Liver microsomes stability, mouse; conditions: for Predicted hepatic CL: Mouse liver microsomes; for Remaining Percentage (%): Mouse; for CLint scaled at 2 μM / half-life at 2 μM / microsomal CLint at 2 μM: male, mouse, microsomes
Procedure: as §1, §2, §3, §4, §5, §6, §7, §8, §9, §10

[4] = Liver microsomes stability, dog; conditions: for Predicted hepatic CL: Dog liver microsomes; for Remaining Percentage (%): Dog; for CLint scaled at 2 μM / half-life at 2 μM / microsomal CLint at 2 μM: dog, microsomes
C57BL/6J mice = experiment: Mouse head twitch; format: in vivo; conditions: mice pretreated with M100907 prior to I-1
Procedure: The effect of different doses of representative compounds of Formula I were evaluated on head-twitch response (HTR) and other behavioural responses indicative of serotonin syndrome as behavior-based models of psychedelic activity.
Male, C57BL/6J mice (body weight range 20-30 g) were dosed with the appropriate dose of test article, and following a 1-minute pre-treatment time, placed in individual observation chambers. Animals were visually assessed for the incidence head twitches continuously over a 1 hr period. Head twitches were defined as a rapid jerk of the head which was not elicited by an external tactile stimulus (Come and Pickering, Psychopharmacologia, 1967, 11(1): 65-78). Each head twitch was individually counted by a trained observer, and the data expressed as the mean+SEM of 6-10 mice per group. Mice were used in a single experiment only.

Compound: CCCCC/C=C\C/C=C\CCCCCCCC(=O)n1cc(C[C@H]2CCCN2C)c2cc(OC)ccc21 [Compound I-6, (9Z,12Z)-1-(5-Methoxy-3-(((R)-1-methylpyrrolidin-2-yl)methyl)-1H-indol-1-yl)octadeca-9,12-dien-1-one]
- IC50 (human 5-HT2A receptor): < 2 µM
- Predicted hepatic CL [1]: 4.62 mL/min/kg
- Remaining Percentage (%) ([1]; With NADPH, 0 min): 100.00%
- Remaining Percentage (%) ([1]; With NADPH, 30 min): 91.33%
- Remaining Percentage (%) ([1]; With NADPH, 60 min): 86.76%
- Remaining Percentage (%) ([1]; Without NADPH, 0 min): 100.00%
- Remaining Percentage (%) ([1]; Without NADPH, 30 min): 89.58%
- Remaining Percentage (%) ([1]; Without NADPH, 60 min): 83.22%
- CLint scaled at 2 μM [1]: 5.94 mL/min/kg
- half-life at 2 μM [1]: 4.88 h
- microsomal CLint at 2 μM [1]: 4.74 µL/min/mg
- Predicted hepatic CL [2]: 14.24 mL/min/kg
- Remaining Percentage (%) ([2]; With NADPH, 0 min): 100.00%
- Remaining Percentage (%) ([2]; With NADPH, 30 min): 83.04%
- Remaining Percentage (%) ([2]; With NADPH, 60 min): 72.53%
- Remaining Percentage (%) ([2]; Without NADPH, 0 min): 100.00%
- Remaining Percentage (%) ([2]; Without NADPH, 30 min): 93.17%
- Remaining Percentage (%) ([2]; Without NADPH, 60 min): 92.62%
- CLint scaled at 2 μM [2]: 19.2 mL/min/kg
- half-life at 2 μM [2]: 2.16 h
- microsomal CLint at 2 μM [2]: 10.7 µL/min/mg
- Predicted hepatic CL [3]: 33.37 mL/min/kg
- Remaining Percentage (%) ([3]; With NADPH, 0 min): 100.00%
- Remaining Percentage (%) ([3]; With NADPH, 30 min): 76.15%
- Remaining Percentage (%) ([3]; With NADPH, 60 min): 69.51%
- Remaining Percentage (%) ([3]; Without NADPH, 0 min): 100.00%
- Remaining Percentage (%) ([3]; Without NADPH, 30 min): 81.25%
- Remaining Percentage (%) ([3]; Without NADPH, 60 min): 91.07%
- CLint scaled at 2 μM [3]: 53 mL/min/kg
- half-life at 2 μM [3]: 1.91 h
- microsomal CLint at 2 μM [3]: 12.1 µL/min/mg
- Predicted hepatic CL [4]: 22.75 mL/min/kg
- Remaining Percentage (%) ([4]; With NADPH, 0 min): 100.00%
- Remaining Percentage (%) ([4]; With NADPH, 30 min): 49.51%
- Remaining Percentage (%) ([4]; With NADPH, 60 min): 35.40%
- Remaining Percentage (%) ([4]; Without NADPH, 0 min): 100.00%
- Remaining Percentage (%) ([4]; Without NADPH, 30 min): 84.09%
- Remaining Percentage (%) ([4]; Without NADPH, 60 min): 91.76%
- CLint scaled at 2 μM [4]: 86.3 mL/min/kg
- half-life at 2 μM [4]: 0.667 h
- microsomal CLint at 2 μM [4]: 34.6 µL/min/mg

Compound: [2H]c1c([2H])c([2H])c2c(c1[2H])c(CCN(C([2H])([2H])[2H])C([2H])([2H])[2H])c([2H])n2C(=O)CCCCCCC/C=C\C/C=C\CCCCC [Compound I-7, (9Z,12Z)-1-(3-(2-(Bis(methyl-d3)amino)ethyl)-1H-indol-1-yl-2,4,5,6,7-d5)octadeca-9,12-dien-1-one]
- IC50 (human 5-HT2A receptor): 2 to 5 µM

Compound: CCCCC/C=C\C/C=C\CCCCCCCC(=O)n1cc(CCN(C)C)c2ccccc21 [Compound I-8, (9Z,12Z)-1-(3-(2-(Dimethylamino)ethyl)-1H-indol-1-yl)octadeca-9,12-dien-1-one]
- IC50 (human 5-HT2A receptor; [3H]-ketanserin competition, read-out: h5-HT2A IC50): < 2 µM
- Predicted hepatic CL [1]: 2.16 mL/min/kg
- Remaining Percentage (%) ([1]; With NADPH, 0 min): 100.00%
- Remaining Percentage (%) ([1]; With NADPH, 30 min): 91.39%
- Remaining Percentage (%) ([1]; With NADPH, 60 min): 94.38%
- Remaining Percentage (%) ([1]; Without NADPH, 0 min): 100.00%
- Remaining Percentage (%) ([1]; Without NADPH, 30 min): 91.04%
- Remaining Percentage (%) ([1]; Without NADPH, 60 min): 100.94%
- CLint scaled at 2 μM [1]: 2.42 mL/min/kg
- half-life at 2 μM [1]: 12 h
- microsomal CLint at 2 μM [1]: 1.93 µL/min/mg
- Predicted hepatic CL [2]: 12.94 mL/min/kg
- Remaining Percentage (%) ([2]; With NADPH, 0 min): 100.00%
- Remaining Percentage (%) ([2]; With NADPH, 30 min): 91.29%
- Remaining Percentage (%) ([2]; With NADPH, 60 min): 75.35%
- Remaining Percentage (%) ([2]; Without NADPH, 0 min): 100.00%
- Remaining Percentage (%) ([2]; Without NADPH, 30 min): 107.31%
- Remaining Percentage (%) ([2]; Without NADPH, 60 min): 109.93%
- CLint scaled at 2 μM [2]: 16.9 mL/min/kg
- half-life at 2 μM [2]: 2.45 h
- microsomal CLint at 2 μM [2]: 9.44 µL/min/mg
- Predicted hepatic CL [3]: 6.52 mL/min/kg
- Remaining Percentage (%) ([3]; With NADPH, 0 min): 100.00%
- Remaining Percentage (%) ([3]; With NADPH, 30 min): 105.41%
- Remaining Percentage (%) ([3]; With NADPH, 60 min): 95.29%
- Remaining Percentage (%) ([3]; Without NADPH, 0 min): 100.00%
- Remaining Percentage (%) ([3]; Without NADPH, 30 min): 87.39%
- Remaining Percentage (%) ([3]; Without NADPH, 60 min): 85.47%
- CLint scaled at 2 μM [3]: 7.03 mL/min/kg
- half-life at 2 μM [3]: 14.4 h
- microsomal CLint at 2 μM [3]: 1.61 µL/min/mg
- Predicted hepatic CL [4]: 18.69 mL/min/kg
- Remaining Percentage (%) ([4]; With NADPH, 0 min): 100.00%
- Remaining Percentage (%) ([4]; With NADPH, 30 min): 66.41%
- Remaining Percentage (%) ([4]; With NADPH, 60 min): 56.62%
- Remaining Percentage (%) ([4]; Without NADPH, 0 min): 100.00%
- Remaining Percentage (%) ([4]; Without NADPH, 30 min): 84.36%
- Remaining Percentage (%) ([4]; Without NADPH, 60 min): 92.44%
- CLint scaled at 2 μM [4]: 47.3 mL/min/kg
- half-life at 2 μM [4]: 1.22 h
- microsomal CLint at 2 μM [4]: 19 µL/min/mg

Compound: [2H]C([2H])([2H])N(C([2H])([2H])[2H])C([2H])([2H])C([2H])([2H])c1cn(C(=O)CCCCCCC/C=C\C/C=C\CCCCC)c2cccc(F)c12 [Compound I-9, (9Z,12Z)-1-(3-(2-(Bis(methyl-d3)amino)ethyl-1,1,2,2-d4)-4-fluoro-1H-indol-1-yl)octadeca-9,12-dien-1-one]
- IC50 (human 5-HT2A receptor): 2 to 5 µM

Compound: COc1cccc([C@H](O)C2CCN(CCc3ccc(F)cc3)CC2)c1OC [Compound M100907, reference compound]
- effect of antagonist pretreatment on HTR induced by I-1 (C57BL/6J mice): completely blocked
